Several values for one entry are separate records, joined by “and”; a condition that tells them apart may be missing. Equal values may be shown once. Read-outs that look alike come from different tables or passages of the source.
Legend:
[1] = target: BSA; conditions: racemic, ref [39]; cited from earlier work
[2] = target: T1, HSA (Homo sapiens, UniProt P02768); conditions: ref [43]; cited from earlier work
T1 construct: purchased Sigma-Aldrich

[3] = target: human serum albumin (HSA) (Homo sapiens, UniProt P02768); assay: Bound percentage by HPLC on HSA column, extrapolation to zero organic modifier; assay type: in vitro ADME; conditions: for Bound percentage (b%), average: average of IPA, EtOH, MeOH
human serum albumin (HSA), sequence (P02768 25-609): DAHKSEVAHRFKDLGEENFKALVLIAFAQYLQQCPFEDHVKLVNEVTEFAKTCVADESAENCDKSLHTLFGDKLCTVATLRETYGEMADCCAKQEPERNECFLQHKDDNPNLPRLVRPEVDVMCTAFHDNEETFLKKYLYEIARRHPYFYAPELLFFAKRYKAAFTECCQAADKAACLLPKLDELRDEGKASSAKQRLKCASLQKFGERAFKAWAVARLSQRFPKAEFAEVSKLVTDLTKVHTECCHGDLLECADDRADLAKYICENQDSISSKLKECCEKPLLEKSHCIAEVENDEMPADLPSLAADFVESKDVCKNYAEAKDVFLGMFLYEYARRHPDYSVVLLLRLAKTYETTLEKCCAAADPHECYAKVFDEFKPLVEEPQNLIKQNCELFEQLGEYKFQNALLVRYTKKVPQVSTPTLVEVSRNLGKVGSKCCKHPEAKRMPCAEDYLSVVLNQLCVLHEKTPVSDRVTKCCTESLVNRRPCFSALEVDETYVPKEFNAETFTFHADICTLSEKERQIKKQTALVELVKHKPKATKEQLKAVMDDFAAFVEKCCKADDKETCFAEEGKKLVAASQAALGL
Description: (§1) Chromatographic columns containing proteins can be used to determine the percentage of drug binding. A plot of the natural logarithm of the retention factors against the proportion of organic modifiers was created. […] The intercept of these linear equations can be used to calculate the bound percentage according to Equation (4) (see in Section 3.2).
(§2) Chromatographic measurements were carried out on two separate HPLC systems. The AGP binding study was performed on a Waters 2695e chromatographic system paired with a Waters 2996 PDA detector, controlled by Empower 3 FR5 (Waters Corp., Milford, MA, USA), while the HSA binding study was performed on an Agilent 1100 HPLC system, consisting of an inline degasser (G1322A), a quaternary pump (G1311A), an automatic injector (G1329A) paired with sample thermostat (G1330A), a column thermostat (G1316A), and a diode array detector (G1315A) with Agilent Chemstation B04.03-SP2 software (Agilent, Bronnwald, Germany). For the binding studies, two protein-based chiral stationary phases were utilized. The chromatographic binding study for AGP was conducted on a ChromTech Chiral-AGP column (150 mm × 4.0 mm; ChromTech Ltd., Congleton, UK), while the binding study for HSA was performed on a Daicel Chiralpak HSA column (50 mm × 4.0 mm; Daicel Corp., Osaka, Japan). The detection wavelength was 210 nm for all measurements. The stock solutions of PPIs were prepared at a concentration of 1 mg/mL in MeOH. Subsequent dilutions were prepared using water. The injected samples were mixed and diluted from the stock solutions. The final concentration for the eutomer was 0.2 mg/mL, and for the distomer, it was 0.1 mg/mL. A volume of 2 μL was injected. To mitigate the instability of PPIs in aqueous solutions, the samples were kept at a temperature of 4 °C. Cooling the samples to 4 °C prevented significant decomposition for a period of 24 h. After 24 h, new samples were prepared for injection. Chromatographic parameters were calculated based on the following equations. The retention factor (k) was calculated as:(1) k=(tr−t0)/t0 where tr is the retention time of the investigated analyte, and t0 is the dead time, determined as the first peak appearance in the chromatogram. Resolution was calculated based on the following equation:(2) Rs=2(t2−t1)/(w1+w2) where t2 and t1 are the retention times of the second and first eluted enantiomers, respectively, while w is the peak width. The separation factor (α) was calculated as follows:(3) α=k2/k1 where k1 and k2 are the retention factors of the first- and second-eluting enantiomers, respectively. The k values were also used to calculate the protein-bound percentage (b%) using Equation (4):(4) b%=k/1+k×100

[4] = tested on: AGP; assay: UV titration (Benesi–Hildebrand) with AGP; assay type: binding, human; conditions: n = 3, 1 μM AGP, pH 7.4 phosphate buffer, 24 °C, 278 nm; for Kd: human, pH 7.4, UV titration, read-out: logKAGP ± Stdev (logarithm of stability constant) (converted)
Description: (§3) The UV-Vis absorption assay is a straightforward and relatively simple method to examine the interactions between small molecules and macromolecules. Changes in the structure of the protein caused by the interacting ligand can lead to alterations in the absorption spectrum. […] Fixed wavelength measurements were conducted at the absorption maxima of AGP and HSA. […] The change in the absorbance and wavelength maximum in the UV spectra during the titration refers to the complex formation between proteins and PPIs. The Benesi–Hildebrand method was used to determine the stability constants based on Equation (7).
(§4) The absorption spectra were recorded on a Jasco V-750 spectrophotometer (Jasco, Tokyo, Japan) at 24 °C using 1.0 cm path-length quartz cuvettes. Then, 1 μM HSA and AGP were dissolved in a sodium phosphate buffer solution (pH 7.4; 0.1 M) and their concentration was kept constant. The PPIs were dissolved in DMSO, and further diluted with the AGP or HSA solution. Next, 1000 μL of 1 μM HSA and AGP solutions was titrated with the PPI stock solution in 1 μL steps. The concentration of the PPIs was set to 4.00, 7.98, 11.96, 15.94, 19.90, 23.86, 27.81, and 31.75 μM. The binding constants were determined using the Benesi–Hildebrand equation:(7) A0/A−A0=εPPI/εAPPI−εPPI+εPPI/εAPPI−εPPI×1/K×[C] where A0 is the absorbance of the HSA or AGP at 278 nm, A is the absorbance of the formed complex also at 278 nm, εPPI is the extinction coefficient of the actual PPI, εAPPI is the extinction coefficient of the albumin or AGP and PPI complex, K is the binding coefficient, and [C] is the concentration of the investigated PPI. The plot of A0/A − A0 versus C^−1 has a slope of K^−1. All experiments were performed in triplicate.

[5] = target: T1, HSA; assay: UV titration (Benesi–Hildebrand) with HSA; assay type: binding; conditions: n = 3, 1 μM HSA, pH 7.4 phosphate buffer, 24 °C, 278 nm, read-out: logKHSA ± Stdev. (logarithm of stability constant) (converted)
Description: as §3, §4

[6] = tested on: α1-acid glycoprotein (AGP); assay: Bound percentage by HPLC on AGP column, extrapolation to zero organic modifier; assay type: in vitro ADME, human; conditions: for Bound percentage (b%), average: average of IPA, EtOH, MeOH
Description: as §1
as §2, with “Cooling the samples to 4 °C prevented significant decomposition for a period of 24 h.” left out

[7] = target: T1, HSA; conditions: ref [41]; cited from earlier work
[8] = extrapolation to zero percent EtOH
[9] = extrapolation to zero percent IPA
[10] = extrapolation to zero percent MeOH

T1 sequence (P02768 25-609): as above

| SMILES | logK [1] | logK [2] | Bound percentage (b%), average [3] | Bound percentage (b%) [3, 8] | Bound percentage (b%) [3, 9] | Bound percentage (b%) [3, 10] | Kd [4] | Kd [5] | Bound percentage (b%), average [6] | Bound percentage (b%) [6, 8] | Bound percentage (b%) [6, 9] | Bound percentage (b%) [6, 10] | logKAGP ± Stdev (logarithm of stability constant) ([4]; UV titration) | logK [7] |
| --- | --- | --- | --- | --- | --- | --- | --- | --- | --- | --- | --- | --- | --- | --- |
| COc1ccnc(C[S+]([O-])c2nc3cc(-n4cccc4)ccc3[nH]2)c1C (centres unmarked) [Ilaprazole] | 5.63 | – | – | – | – | – | – | – | – | – | – | – | – | – |
| COc1ccnc(C[S+]([O-])c2nc3ccc(OC(F)F)cc3[nH]2)c1OC (centres unmarked) [Pantoprazole] | 5.04 | – | – | – | – | – | – | – | – | – | – | – | – | – |
| COc1ccc2[nH]c([S@+]([O-])Cc3ncc(C)c(OC)c3C)nc2c1 [R-omeprazole] | – | 3.50 | 91.76% and 91.76 ± 1.08% | 92.97% | 91.15% | 91.03% | 20.4 µM | 33.9 µM | – | – | – | – | – | – |
| COCCCOc1ccnc(C[S@@+]([O-])c2nc3ccccc3[nH]2)c1C [R-rabeprazole, dexrabeprazole] | – | – | 88.84% and 88.84 ± 0.59% | 88.85% | 88.24% | 89.42% | 31.6 µM | 46.8 µM | 96.78% and 96.78 ± 1.77% | 96.69% | 98.60% | 95.07% | 4.59 ± 0.03 | – |
| COc1ccc2nc([S@@+]([O-])Cc3ncc(C)c(OC)c3C)[nH]c2c1 [S-omeprazole, esomeprazole] | – | 3.73 | 91.76% and 91.76 ± 1.08% | 92.97% | 91.15% | 91.03% | 33.9 µM | 95.5 µM | – | – | – | – | – | 4.70 |
| COCCCOc1ccnc(C[S@+]([O-])c2nc3ccccc3[nH]2)c1C [S-rabeprazole] | – | – | 88.84% and 88.84 ± 0.59% | 88.85% | 88.24% | 89.42% | 17.4 µM | 38 µM | 97.98% and 97.98 ± 1.51% | 98.17% | 99.39% | 96.39% | – | – |

Reference: article PMC11477000, “Enantioselective Binding of Proton Pump Inhibitors to Alpha1-Acid Glycoprotein and Human Serum Albumin—A Chromatographic, Spectroscopic, and In Silico Study” (International Journal of Molecular Sciences, 2024)
